Earlier results on one molecule are cited in patent US20150209317A1, “Plant Extracts for Improving Cognitive Function” (Kemin Industries, Inc., priority 2014, published 2015).

Series [1] concerns aging mice. As to conditions: RA administration to aging mice.
For series [2] the following is noted: subchronic administration (Park 2010).

Take `O=C(/C=C/c1ccc(O)c(O)c1)O[C@H](Cc1ccc(O)c(O)c1)C(=O)O` [Rosmarinic acid]: in series [1], the “Catalase (CAT) activity in the brain” value was “increased”, the “Malondialdehyde (MDA) in the brain” value is “decreasing” and the “Superoxide dismutase (SOD) activity in the brain” value is given as “increased”. In series [2], the “Memory in the Morris water maze spatial task” value is reported as “improved memory”.
